According to patent US4731486A, “Hydroformylation using low volatile phosphine ligands” (Union Carbide Corporation, priority 1986, dated 1988):

Assay: Batch hydroformylation of butene-1 (Examples 14, 19)
Conditions: 100° C., 300 ppm Rh
Description: Each rhodium catalytic precursor solution so prepared was then employed to hydroformylate propylene in a magnetically stirred, 100 mL capacity, stainless steel autoclave which was attached to a gas manifold for introducing gases to the desired partial pressures. The autoclave was also equipped with a pressure calibrator for determining reaction pressure to ±0.01 psia. and a platinum resistance thermometer for determining reactor solution temperatures to ±0.10° C. The reactor was heated externally by two 300 watt heating bands. The reactor solution temperature was controlled by a platinum resistance sensor connected to an external proportional temperature controller for controlling the temperature of the external band heaters.
In each non-aqueous hydroformylation reaction, about 15 milliliters (about 14 grams) of the rhodium catalytic precursor solution so prepared was charged to the autoclave reactor under nitrogen and heated to the reaction temperature employed (as given in Table 1 below). The reactor was then vented down to 5 psig. and a premixed gas mixture of 1:1:1 carbon monoxide:hydrogen:propylene was introduced into the reactor via the gas manifold (partial pressures given in Table 1) and the propylene so hydroformylated.
The hydroformylation reaction rate in gram moles per liter per hour of C4 aldehydes produced was determined from sequential 5 psia. pressure drops in the reactor spanning the nominal operating pressure in the reactor, while the mole ratio of linear (n-butyraldehyde) to branched (2-methylpropionaldehyde) product was measured by gas chromatography and the results are given in Table 1 below.
The same procedure and conditions employed in Example 1 of preparing various rhodium catalytic precursor solutions using rhodium dicarbonyl acetylacetonate, about a 3:1 (wt.:wt. ratio) mixture of Texanol® and CARBOWAX® TPEG-990 (about 25 wt. %) as the solubilizing agent, and a monosulfonated triphenylphosphine sodium salt ligand having the formula [drawing 26] and hydroformylating an olefin was repeated employing the various rhodium complex catalyst precursor solutions and using different alpha olefins as the hydroformylation feedstocks and the reaction conditions as shown in Table 14 below.
A comparison of the catalytic activity of aqueous and non-aqueous solutions of monosulfonated triphenylphosphine sodium salt ligand promoted catalysts in hydroformylating various molecular weight alphe-olefins was determined as follows.
The same procedure and conditions employed in Example 1 of preparing rhodium catalytic precursor solutions, using rhodium dicarbonyl acetylacetonate, monosulfonated triphenylphosphine sodium salt having the formula as shown in Example 4 in either a non-aqueous organic solubilizing agent solution or water, as given in Table 19 below, and hydroformylating the various alpha-olefins was repeated employing the various rhodium complex precursor solutions and hydroformylation reaction conditions as shown in Table 19 below. Both the aqueous and non-aqueous hydroformylation reactions were conducted under identical conditions with regard to temperature, rhodium and ligand concentration, hydrogen and carbon monoxide partial pressure and olefin concentration.

[1] = Texanol/TPEG-990 3:1, 8.7 wt. % ligand, 75 psia 4:1 H2:CO
[2] = aqueous (water as solvent), 90 psia 1:1 H2:CO
[3] = non-aqueous (Texanol/Carbowax TPEG990 2.6:1), 90 psia 1:1 H2:CO

## O=S(=O)([O-])c1cccc(P(c2ccccc2)c2ccccc2)c1.[Na+]
[1]
  Linear/Branched Aldehyde Mole Ratio: 12.8
  Reaction Rate: 5.96 G moles/L/hr
[2]
  Linear/Branched Aldehyde Mole Ratio: 37.1
  Reaction Rate: 0.44 G Moles/L/Hr
[3]
  Linear/Branched Aldehyde Mole Ratio: 5.1
  Reaction Rate: 6.94 G Moles/L/Hr
